Laboratory results: EP1561465A2, “Methods of use of fluoroquinolone compounds against bacteria” (LG Life Sciences, Ltd., priority 1999, dated 2001)
Converted amounts (≈) assume the structure as drawn. “And” between values parts separate entries of the source, which are not always exact repeats. Equal entries are not always repeated. Where two headings read alike, the source gives them in different places.

Key:
Format in all cases: cell-based
Pseudomonas aeruginosa = assay: MIC by agar dilution (NCCLS), 322 nosocomial Gram negative isolates, Athens 1998; details: n = 57 isolates
Escherichia coli = assay: as above; details: Escherichia coli; n = 57 isolates
Klebsiella pneumoniae = assay: as above; details: n = 56 isolates; for MIC50 / MIC90: Klebsiella pneumoniae
Proteus mirabilis = assay: as above; details: n = 57 isolates; for MIC50 / MIC90: Proteus mirabilis
Acinetobacter spp. = assay: as above; details: n = 38 strains; for MIC50 / MIC90: Acinetobacter
[1] = test system: Gram positive anaerobic and facultative anaerobic pathogens; assay: organism not typed
[2] = test system: Gram negative anaerobic pathogens and facultative anaerobic pathogens; assay: MIC by agar dilution, Brucella HK agar with 5% laked sheep blood, anaerobic reference strains
Enterobacter spp. = assay: MIC by agar dilution (NCCLS), 322 nosocomial Gram negative isolates, Athens 1998; details: n = 57 isolates

CC(C)(O/N=C(\C(=O)N[C@@H]1C(=O)N2C(C(=O)[O-])=C(C[n+]3ccccc3)CS[C@H]12)c1csc(N)n1)C(=O)O [Ceftazidime]
MIC50 (Pseudomonas aeruginosa): 2 µg/mL (≈ 3.66 µM)
MIC90 (Pseudomonas aeruginosa): > 64 µg/mL
MIC50 (Escherichia coli): 0.125 µg/mL (≈ 0.229 µM)
MIC90 (Escherichia coli): 0.25 µg/mL (≈ 0.457 µM)
MIC50 (Klebsiella pneumoniae): 0.25 µg/mL (≈ 0.457 µM)
MIC90 (Klebsiella pneumoniae): > 64 µg/mL
MIC50 (Proteus mirabilis): 0.125 µg/mL (≈ 0.229 µM)
MIC90 (Proteus mirabilis): 8 µg/mL (≈ 14.6 µM)
MIC50 (Acinetobacter spp.): > 64 µg/mL
MIC90 (Acinetobacter spp.): > 64 µg/mL

C[C@@H](O)[C@H]1C(=O)N2C(C(=O)O)=C(SCCN=CN)C[C@H]12 [Imipenem]
MIC [1]: 0.125 µg/mL and 0.25 µg/mL
MIC ([1]; Bifidobacterium adolescentis, ATCC15703): 0.125 µg/mL (≈ 0.418 µM)
MIC ([1]; Bifidobacterium bifidum, JCM1255): 0.125 µg/mL (≈ 0.418 µM)
MIC ([1]; Bifidobacterium breve, ATCC15700): 1 µg/mL (≈ 3.34 µM)
MIC ([1]; Bifidobacterium longum, ATCC15707): 0.25 µg/mL (≈ 0.835 µM)
MIC ([1]; Bifidobacterium pseudolongum, ATCC25526): 0.25 µg/mL (≈ 0.835 µM)
MIC ([1]; Clostridioides difficile): 4 µg/mL (≈ 13.4 µM)
MIC ([1]; Clostridium perfringens, ATCC13124): 0.125 µg/mL (≈ 0.418 µM)
MIC ([1]; Clostridium septicum, ATCC12464): ≤ 0.03 µg/mL
MIC ([1]; Cutibacterium acnes, ATCC11828): 0.125 µg/mL (≈ 0.418 µM)
MIC ([1]; Eggerthella lenta, ATCC25559): 2 µg/mL (≈ 6.68 µM)
MIC ([1]; Finegoldia magna, ATCC29328): 0.25 µg/mL (≈ 0.835 µM)
MIC ([1]; Gemella morbillorum, ATCC27824): ≤ 0.03 µg/mL
MIC ([1]; Lacticaseibacillus casei, JCM1134): 0.5 µg/mL (≈ 1.67 µM)
MIC ([1]; Lactiplantibacillus plantarum, JCM1149): 0.06 µg/mL (≈ 0.2 µM)
MIC ([1]; Lactobacillus acidophilus, JCM1132): 0.125 µg/mL (≈ 0.418 µM)
MIC ([1]; Levilactobacillus brevis, JCM1059): 0.06 µg/mL (≈ 0.2 µM)
MIC ([1]; Ligilactobacillus salivarius, JCM1231): 0.5 µg/mL (≈ 1.67 µM)
MIC ([1]; Limosilactobacillus reuteri, JCM1112): 0.06 µg/mL (≈ 0.2 µM)
MIC ([1]; Limosilactobacillus reuteri, JCM1173): ≤ 0.03 µg/mL
MIC ([1]; Paraclostridium sordellii, ATCC9714): ≤ 0.03 µg/mL
MIC ([1]; Parvimonas micra): 0.125 µg/mL (≈ 0.418 µM)
MIC ([1]; Peptoniphilus asaccharolyticus): 0.125 µg/mL (≈ 0.418 µM)
MIC ([1]; Peptoniphilus indolicus): ≤ 0.03 µg/mL
MIC ([1]; Peptostreptococcus anaerobius, ATCC27337): 0.06 µg/mL (≈ 0.2 µM)
MIC ([1]; Schaalia odontolytica): 0.5 µg/mL (≈ 1.67 µM)
MIC ([1]; Staphylococcus saccharolyticus, ATCC14953): ≤ 0.03 µg/mL
MIC ([1]; Streptococcus constellatus, ATCC27823): 0.25 µg/mL (≈ 0.835 µM)
MIC ([1]; Streptococcus intermedius, ATCC27335): 0.25 µg/mL (≈ 0.835 µM)
MIC ([1]; Thomasclavelia ramosa, ATCC25582): 0.25 µg/mL (≈ 0.835 µM)
MIC ([2]; Bacteroides eggerthii, ATCC27754): 0.125 µg/mL (≈ 0.418 µM)
MIC ([2]; Bacteroides fragilis, ATCC25285, Bacteroides fragilis ATCC25285, read-out: MIC): 0.5 µg/mL (≈ 1.67 µM)
MIC ([2]; Bacteroides fragilis, Bacteroides fragilis GA15562, read-out: MIC): 0.25 µg/mL (≈ 0.835 µM)
MIC ([2]; Bacteroides fragilis, Bacteroides fragilis GA-I0558, read-out: MIC): 1 µg/mL (≈ 3.34 µM)
MIC ([2]; Bacteroides fragilis, Bacteroides fragilis GA-I7955, read-out: MIC): 4 µg/mL (≈ 13.4 µM)
MIC ([2]; Bacteroides fragilis, Bacteroides fragilis GAI10150, read-out: MIC): 2 µg/mL (≈ 6.68 µM)
MIC ([2]; Bacteroides fragilis, Bacteroides fragilis GAI30079, read-out: MIC): 256 µg/mL (≈ 855 µM)
MIC ([2]; Bacteroides fragilis, Bacteroides fragilis GAI30144, read-out: MIC): 256 µg/mL (≈ 855 µM)
MIC ([2]; Bacteroides fragilis, NCTC10581): 0.125 µg/mL (≈ 0.418 µM)
MIC ([2]; Bacteroides ovatus, ATCC8483, Bacteroides ovatus ATCC8483, read-out: MIC): 0.25 µg/mL (≈ 0.835 µM)
MIC ([2]; Bacteroides thetaiotaomicron, ATCC29741, Bacteroides thetaiotaomicron ATCC29741, read-out: MIC): 0.5 µg/mL (≈ 1.67 µM)
MIC ([2]; Bacteroides uniformis, ATCC8492, Bacteroides uniformis ATCC8492, read-out: MIC): 0.5 µg/mL (≈ 1.67 µM)
MIC ([2]; Bilophilla wadsworthia WAL7959, read-out: MIC): 0.25 µg/mL (≈ 0.835 µM)
MIC ([2]; Campylobacter gracilis, JCM8538, Campylobacter gracilis JCM8538, read-out: MIC): 0.25 µg/mL (≈ 0.835 µM)
MIC ([2]; Campylobacter ureolyticus, NCTC10941, Bacteroides ureolyticus NCTC10941, read-out: MIC): 0.25 µg/mL (≈ 0.835 µM)
MIC ([2]; Capnocytophaga ochracea, Capnocytophaga ochracea GAI5586, read-out: MIC): 0.25 µg/mL (≈ 0.835 µM)
MIC ([2]; Desullomonas pigra DSM749, read-out: MIC): 0.06 µg/mL (≈ 0.2 µM)
MIC ([2]; Fusobacterium necrophorum, ATCC25286): 0.125 µg/mL (≈ 0.418 µM)
MIC ([2]; Fusobacterium nucleatum, ATCC25586, Fusobacterium nucleatum ATCC25586, read-out: MIC): 1 µg/mL (≈ 3.34 µM)
MIC ([2]; Fusobacterium varium, ATCC8501, Fusobacterium varium ATCC8501, read-out: MIC): 4 µg/mL (≈ 13.4 µM)
MIC ([2]; Hoylesella oralis, ATCC33269, Prevotella oralis ATCC33269, read-out: MIC): ≤ 0.03 µg/mL
MIC ([2]; Parabacteroides distasonis, ATCC8503, Bacteroides distasonis ATCC8503, read-out: MIC): 1 µg/mL (≈ 3.34 µM)
MIC ([2]; Phocaeicola vulgatus, ATCC8482, Bacteroides vulgatus ATCC8482, read-out: MIC): 1 µg/mL (≈ 3.34 µM)
MIC ([2]; Porphylomonas gingivalis ATCC33277, read-out: MIC): ≤ 0.03 µg/mL
MIC ([2]; Porphyromonas asaccharolytica, ATCC25260, Porphyromonas asaccharolytica ATCC25260, read-out: MIC): ≤ 0.03 µg/mL
MIC ([2]; Prevotella bivia, ATCC29303, Prevotella bivia ATCC29303, read-out: MIC): 0.06 µg/mL (≈ 0.2 µM)
MIC ([2]; Prevotella buccaeATCC33574, read-out: MIC): 0.25 µg/mL (≈ 0.835 µM)
MIC ([2]; Prevotella corporis, Prevotella corporis GAI91000, read-out: MIC): ≤ 0.03 µg/mL
MIC ([2]; Prevotella heparinolytica, ATCC35895): 0.125 µg/mL (≈ 0.418 µM)
MIC ([2]; Prevotella melaninogenica, Prevotella melaninogenica GAI5490, read-out: MIC): ≤ 0.03 µg/mL
MIC ([2]; Segatella oris, ATCC33573, Prevotella oris ATCC33573, read-out: MIC): 0.06 µg/mL (≈ 0.2 µM)
MIC ([2]; Sutterella wadsworthensis, ATCC51579, Sutterella wadsworthensis ATCC51579, read-out: MIC): 2 µg/mL (≈ 6.68 µM)
MIC ([2]; Veillonella dispar, ATCC17748, Veillonella dispar ATCC17748, read-out: MIC): 0.06 µg/mL (≈ 0.2 µM)
MIC ([2]; Veillonella parvula, ATCC10790): 0.125 µg/mL (≈ 0.418 µM)
MIC50 (Pseudomonas aeruginosa): 2 µg/mL (≈ 6.68 µM)
MIC90 (Pseudomonas aeruginosa): 32 µg/mL (≈ 107 µM)
MIC50 (Klebsiella pneumoniae): 0.25 µg/mL (≈ 0.835 µM)
MIC90 (Klebsiella pneumoniae): 1 µg/mL (≈ 3.34 µM)
MIC Range (Klebsiella pneumoniae): 0.125 to 4 µg/mL
MIC50 (Proteus mirabilis): 2 µg/mL (≈ 6.68 µM)
MIC90 (Proteus mirabilis): 4 µg/mL (≈ 13.4 µM)
MIC Range (Proteus mirabilis): 0.125 to 16 µg/mL
MIC50 (Enterobacter spp.; Enterobacter, read-out: MIC50): 1 µg/mL (≈ 3.34 µM)
MIC90 (Enterobacter spp.; Enterobacter, read-out: MIC90): 2 µg/mL (≈ 6.68 µM)
MIC Range (Enterobacter spp.): 0.25 to 64 µg/mL
MIC50 (Acinetobacter spp.): 1 µg/mL (≈ 3.34 µM)
MIC90 (Acinetobacter spp.): 4 µg/mL (≈ 13.4 µM)
MIC Range (Acinetobacter spp.): 0.06 to 16 µg/mL
